{"source": "patent US20110046724A1", "about": "“Expansible Biocompatible Coats Comprising a Biologically Active Substance” (Avidal Vascular GMBH, priority 2008, published 2011)", "key": {"[1]": {"system": "smooth muscle cells (SCM)", "assay": "short-term application of paclitaxel to smooth muscle cells", "type": "cell-based, human", "conditions": "effect dose and time dependent", "excerpt": "(§1) This effect is dose and time dependent; rising concentrations in paclitaxel and longer application show higher inhibition of cell proliferation and migration."}, "[2]": {"system": "human endothelial progenitor cells (EPC)", "assay": "short-term application of paclitaxel to human endothelial progenitor cells", "type": "cell-based", "conditions": "effect dose and time dependent", "excerpt": "as §1"}}, "data": [{"smiles": "CC(=O)O[C@H]1C(=O)[C@@]2(C)[C@H]([C@H](OC(=O)c3ccccc3)[C@]3(O)C[C@H](OC(=O)[C@H](O)[C@@H](NC(=O)c4ccccc4)c4ccccc4)C(C)=C1C3(C)C)[C@]1(OC(C)=O)CO[C@@H]1C[C@@H]2O", "note": "[paclitaxel]", "values": [{"measurement": "apoptosis, inhibition of cell proliferation and migration", "setting": "[1]", "value": "leads to apoptosis and therefore inhibition of cell proliferation and migration"}, {"measurement": "apoptosis, inhibition of cell proliferation and migration", "setting": "[2]", "value": "leads to apoptosis and therefore inhibition of cell proliferation and migration"}]}]}
